Results taken from publication PMC11530130, “Peripherally restricted PICK1 inhibitor mPD5 ameliorates pain behaviors in murine inflammatory and neuropathic pain models” (JCI Insight, 2024).
“And” between values parts separate entries of the source, which are not always exact repeats. Equal values may be shown once.

Tested on: mice, CIBP model (NCTC 2472 cell inoculation)
Experiment: CIBP model, limb use score
Format: in vivo, mouse
Settings: for effect on limb-use score: CIBP, female mice; for limb use score (Fig S7B): CIBP mice, individual animals
Experimental: solution (0.05 mg/kg) injected s.c. 30 min before surgery (10 μL/g). For surgery, mice were anaesthetised with ketamine (100 mg/kg, i.p.) and xylazine (10 mg/kg, i.p.) (volume 10 µL/g) with 100 μL of 1% xylocaine solution infiltrated at the site of the incision. The distal trifurcation of the sciatic nerve was identified, and the tibial and common peroneal branches were ligated with polypropylene nonabsorbable 6-0 sutures (Ethicon) and 1 mm was cut out, leaving the sural branch intact. The wound was closed with sutures, and the animals were allowed to recover and returned to their cages. Two subcutaneous injections of buprenorphine (0.05 mg/kg) were performed with an 8 to 12 hours delay decreasing pain due to the surgery […]
The remaining SNI pain experiments were performed in-house using the following procedure.
SNI surgery was performed on the left hindleg of C57BL/6J male and female mice (Janvier, France) under 2% isoflurane anaesthesia. Skin on the lateral surface was incised between hip and knee followed by lengthwise division of the biceps femoris muscle leading to exposure of the three branches of the sciatic nerve. Sural branch was left intact, while the peroneal and tibial branches were ligated with a single surgical knot and axotomized distally of the ligation.
Wounds were closed with surgical glue or medical clips and animals were monitored daily for signs of stress or discomfort, but in all cases recovered uneventfully.
Induction of Diabetic neuropathy (STZ model).
Diabetes was induced by a single i.p. injection of […] streptozocin (STZ) solution (100 μL/10 g, Sigma-Aldrich S0130, batch #WXBB7152V) in male seven-week-old C57BL/6J (Charles River) mice. Glycemia was tested before, and seven days after injection. All injected mice had blood glucose concentration >350 mg/dL from day seven and were used for analgesic testing of the compounds from day 14. One mouse had to be euthanized at seven days post injection. This experiment was performed by Phenotype Expertise, Marseilles, France - Pain and CNS behaviour CRO under supervision of Stéphane Gaillard, PhD (CEO).
Induction of cancer induced bone pain (CIBP model).
Osteosarcoma cell line NCTC 2472 (American Type Culture Collection, CCL-11TM) was cultured for two weeks prior to surgery in NCTC-135 medium (Sigma-Aldrich, Denmark) supplemented with sodium hydrogen carbonate and 10% equine serum (Sigma-Aldrich, Denmark). On the day of surgery, cells were washed with PBS and incubated with 3 mL trypsin-EDTA for five min followed by centrifugation (2800 rpm, 3 min). Supernatant was removed, and cell pellet resuspended in PBS to obtain a cell density of 10^7 cells/mL.
Two separate cohorts of female C3H/HeNHsd mice (Envigo, Netherlands) of 7-8 weeks, were anaesthetized with 6.25 mg/kg xylazine (Rompun vet, 20 mg/mL, Bayer, KVP Pharma + Veterinär Produkte GmbH, Germany, Batch: KV02BHF) and 43.75 mg/kg ketamine (Ketaminol vet, 100 mg/mL, MSD Animal Health, AN Boxmeer, The Netherlands, Batch:
A140A01) and received 1.0-1.2% isoflurane (1000 mg/g isoflurane, Attane vet, ScanVet, Piramal Critical Care Ltd., UK, Batch: G123J18B) during surgery. The mouse was placed on a 37 °C heating pad. Both hind legs were shaved, and a small horizontal incision was made under the knee followed by a vertical incision of approximately 0.5 cm until the patellar tendon was exposed. The patellar tendon was moved to the lateral side exposing the distal epiphysis of the femur. A hole was made in the middle of the distal epiphysis by gently pushing a 30 G needle (0.3x12 mm, 30 Gx1/2”, Luer-Lock, CHIRANA T. Injecta, CH30012) through the bone while rotating. The position of the needle was confirmed by X-ray imaging (IVIS Lumina XR Apparatus, Caliper Life Sciences, Belgium). Following resuspension, 10 μL, corresponding to […]
[…] NCTC 2472 cells or PBS (sham mice), was injected in the bone marrow cavity with an insulin syringe (1 mL Luer, BD PlastipakTM, 303172) attached to a 30 G needle and left in the […]
femur for one min. […]

Row | Compound | effect on limb-use score (s.c. 10 μmol/kg) | limb use score (Fig S7B) (BL1) | limb use score (Fig S7B) (BL2) | limb use score (Fig S7B) (Post (after treatment)) | limb use score (Fig S7B) (Pre (before treatment)) | effect on limb-use score (s.c. 5 mg/kg)
1 | CCCCCCCCCCCCCC(=O)N(CCOCCOCCC(=O)N[C@@H](Cc1c[nH]cn1)C(=O)N[C@@H](Cc1c[nH]c2ccccc12)C(=O)N[C@@H](CC(C)C)C(=O)N[C@@H](CCCCN)C(=O)N[C@H](C(=O)O)C(C)C)CCOCCOCCC(=O)N[C@@H](Cc1c[nH]cn1)C(=O)N[C@@H](Cc1c[nH]c2ccccc12)C(=O)N[C@@H](CC(C)C)C(=O)N[C@@H](CCCCN)C(=O)N[C@H](C(=O)O)C(C)C [mPD5, myristoyl-NPEG4-(HWLKV)2] | no effect |  |  |  |  | 
2 | CN1CC[C@]23c4c5ccc(O)c4O[C@H]2[C@@H](O)C=C[C@H]3[C@H]1C5 [morphine] |  | 4 | 4 | 3 (3×) and 1 (2×) and 2 (4×) and 0 | 2 (3×) and 1 (5×) and 0 (2×) | partial but significant increase
